Test results reported in PubChem BioAssay AID256 (DTP/NCI, 2004).
Several values for one entry are separate records, joined by “and”; a condition that tells them apart may be missing. Equal entries are not always repeated. Inconclusive results and toxic doses are left out. The calls were made as follows: active = survival T/C of 150% or more; inactive = T/C below 125% in these data.

System: CD2F1 mice, L1210 leukemia ip, survival T/C
Experiment: NCI In Vivo Anticancer Drug Screen. Data for tumor model L1210 Leukemia (intraperitoneal) in CD2F1 (CDF1) mice
Conditions: endpoint: mean survival time, schedule: Q01DX005 (ip), vehicle: other, higher = longer survival
How it was run: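 In this screen, transplantable tumors were grown in mice given either the compound or its vehicle. Results were expressed as the treated measurement relative to the control measurement.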

Measured: T/C

Nc1ccn(C2OC(CO)C3[O][Sn]([c]4ccccc4)([c]4ccccc4)[O]C32)c(=O)n1 (centres undefined)
inactive: dose: 1.56 mg/kg/injection 100 % of control | dose: 3.13 mg/kg/injection 94 % of control | dose: 6.25 mg/kg/injection 100 % of control | dose: 12.5 mg/kg/injection 94 % of control and 104 % of control
